Laboratory results taken from US12378519B2, “Microfluidic model of the blood brain barrier” (EMULATE, Inc., priority 2015, dated 2025).

How the values were obtained:
Assay type in all cases: cell-based, human
neurons seeded in chip = system: neurons seeded in chip
iBMEC barrier function = assay: TEER measurement on prototype TEER chips under flow; settings: exposure of the chips to TNFa after flow, FIG. 14A
Procedure: Cells were plated on tall channel PDMS chips equipped with incorporated gold electrodes on each channel (see FIG. 13A). Post seeding of BMECs, transendothelial electrical resistance was measured by connecting the electrodes to an EVOM2 voltohmmeter (see FIG. 13B). […] The “damaged” chip was a failure due to the TEER-Chips being a prototype.
Higher TEER values generally indicate a tighter barrier, which is typically desirable for a blood-brain barrier.

[1] = system: BMECs seeded on a microfluidic device; assay: Paracellular permeability assay with Dextran-FITC on chip; settings: TNF-alpha exposure, FIG. 14B
Procedure: Albumin or Dextran conjugated to a fluorescent probe (e.g., FITC or TRITC) are frequently used to monitor changes in leakage, and thus barrier function. In this case, Dextran-FITC, a green fluorescent molecule of 4 KDa, or sodium fluorescein (a 0.3 KDa molecule), was added to the bottom (“blood side”) channel. Paracellular permeability was calculated by measuring the permeability of the fluorescent molecule on the Top (“brain side”) channel. […] FIG. 14B involves TNF-alpha exposure, but the readout is membrane permeability as measured by Dextran-FITC.

| Compound | neuronal activity (Ca2+ fluxes, dF/F) (neurons seeded in chip) | iBMEC barrier function (TEER) (iBMEC barrier function) | membrane permeability as measured by Dextran-FITC [1] |
| --- | --- | --- | --- |
| NC1=N[C@H](O)[C@H]2[C@H]3O[C@]4(O)O[C@@H]([C@@H](O)[C@@]2(N1)[C@@H]4O)[C@]3(O)CO [TTX, tetrodotoxin] | ablates this activity |  |  |
| TNFa |  | weakening of barrier function | increase in permeability |
